Data taken from PMC10320843 (2023).

Key:
[1] = test system: F21T (DNA, G4) GGGTTAGGGTTAGGGTTAGGG; assay: FRET-melting; conditions: K+ (CacoK10, Table S1); CacoK10 buffer; 1 μM compound, 0.2 μM nucleic acid; no competitor
[2] = test system: F-Myc-T (DNA, G4) GAGGGTGGGGAGGGTGGGGAAG; assay: FRET-melting; conditions: K+ (CacoK1, Table S1); CacoK1 buffer; 1 μM compound, 0.2 μM nucleic acid; no competitor
[3] = test system: F-Kit2-T (DNA, G4) CGGGCGGGCGCGAGGGAGGGG; assay: FRET-melting; conditions: buffer not stated in main text
[4] = test system: F-TERRA-T (RNA, G4) GGGUUAGGGUUAGGGUUAGGG; assay: FRET-melting; conditions: K+ (CacoK1, Table S1); CacoK1 buffer; 1 μM compound, 0.2 μM nucleic acid; no competitor
[5] = test system: F-VEGF-T (RNA, G4) GGAGGAGGGGAGGAGGA; assay: FRET-melting; conditions: K+ (CacoK1, Table S1); CacoK1 buffer; 1 μM compound, 0.2 μM nucleic acid; no competitor
[6] = test system: F-NRAS-T (RNA, G4) GGGAGGGGCGGGUCUGGG; assay: FRET-melting; conditions: 1 μM compound, 0.2 μM RNA; no competitor; buffer not stated
[7] = test system: 5'Cy5-Myc (DNA, G4) GAGGGTGGGGAGGGTGGGGAAG; assay: Cy5 fluorescence quenching titration; conditions: 50 mM TrisHCl/Triton buffer (Table S1), 25 °C; 20 nM DNA; apparent
[8] = test system: F-22AG (DNA, G4) AGGGTTAGGGTTAGGGTTAGGG; assay: streptavidin bead pull-down, FAM fluorescence; conditions: Mg2+ (concentration in Table S1); 20 mM TrisHCl/MgCl2 buffer, 25 °C; 10 μM compound, 1 μM nucleic acid; no TASQ = 1
[9] = test system: F-Myc (DNA, G4) GAGGGTGGGGAGGGTGGGGAAG; assay: streptavidin bead pull-down, FAM fluorescence; conditions: Mg2+ (concentration in Table S1); 20 mM TrisHCl/MgCl2 buffer, 25 °C; 10 μM compound, 1 μM nucleic acid; no TASQ = 1
[10] = test system: F-duplex (DNA, hairpin) TATAGCTATATTTTTTTATAGCTATA; assay: streptavidin bead pull-down, FAM fluorescence; conditions: Mg2+ (concentration in Table S1); 20 mM TrisHCl/MgCl2 buffer, 25 °C; 10 μM compound, 1 μM DNA; no TASQ = 1
[11] = test system: F-TERRA (RNA, G4) GGGUUAGGGUUAGGGUUAGGG; assay: streptavidin bead pull-down, FAM fluorescence; conditions: Mg2+ (concentration in Table S1); 20 mM TrisHCl/MgCl2 buffer, 25 °C; 10 μM compound, 1 μM nucleic acid; no TASQ = 1
[12] = test system: F-VEGF (RNA, G4) GGAGGAGGGGAGGAGGA; assay: streptavidin bead pull-down, FAM fluorescence; conditions: Mg2+ (concentration in Table S1); 20 mM TrisHCl/MgCl2 buffer, 25 °C; 10 μM compound, 1 μM nucleic acid; no TASQ = 1
[13] = test system: F-NRAS (RNA, G4) GGGAGGGGCGGGUCUGGG; assay: streptavidin bead pull-down, FAM fluorescence; conditions: Mg2+ (concentration in Table S1); 20 mM TrisHCl/MgCl2 buffer, 25 °C; 10 μM compound, 1 μM nucleic acid; no TASQ = 1
[14] = test system: G4-strand (97-nt ODN) (DNA, G4) TAGCCATTCAGCCGTAACAGGCAGTGGAAGAGAGACAGACAGGGCAGGGCAGGGCAGGGCAGTACAGTAGAACCTAATGGTGTTTGATGGTATCTAA; assay: streptavidin bead pull-down, qPCR (SYBR green); conditions: 40 μM compound, 4 μM DNA; fluorescence difference from no TASQ

Structure (SMILES) | ΔT1/2 [1] [°C] | ΔT1/2 [2] [°C] | ΔT1/2 [3] [°C] | ΔT1/2 [4] [°C] | ΔT1/2 [5] [°C] | ΔT1/2 [6] [°C] | appKD [7] [µM] | fold enrichment [8] [fold] | fold enrichment [9] [fold] | fold enrichment [10] [fold] | fold enrichment [11] [fold] | fold enrichment [12] [fold] | fold enrichment [13] [fold] | ΔFI [14]
C#CCCCC(=O)NCC1CN(CCCCCNC(=O)CN(CCN)C(=O)Cn2cnc3c(=O)[nH]c(N)nc32)CCN(CCCCCNC(=O)CN(CCN)C(=O)Cn2cnc3c(=O)[nH]c(N)nc32)CCN(CCCCCNC(=O)CN(CCN)C(=O)Cn2cnc3c(=O)[nH]c(N)nc32)CCN1CCCCCNC(=O)CN(CCN)C(=O)Cn1cnc2c(=O)[nH]c(N)nc21 (centres unmarked) | 2.5 ± 0.2 | 5.3 ± 0.3 | 5.8 ± 0.2 | 11.0 ± 0.9 | 11.9 ± 0.4 | 11.8 ± 0.7 | 1.44 ± 0.1 |  |  |  |  |  |  | 
[N-]=[N+]=NCCCCCC(=O)NCC1CN(CCCCCNC(=O)CN(CCN)C(=O)Cn2cnc3c(=O)[nH]c(N)nc32)CCN(CCCCCNC(=O)CN(CCN)C(=O)Cn2cnc3c(=O)[nH]c(N)nc32)CCN(CCCCCNC(=O)CN(CCN)C(=O)Cn2cnc3c(=O)[nH]c(N)nc32)CCN1CCCCCNC(=O)CN(CCN)C(=O)Cn1cnc2c(=O)[nH]c(N)nc21 (centres unmarked) | 2.2 ± 0.3 | 6.4 ± 0.2 | 7.7 ± 1.0 | 12.4 ± 0.6 | 11.3 ± 0.4 | 14.6 ± 1.1 | 0.90 ± 0.1 |  |  |  |  |  |  | 
NCCN(CC(=O)NCCCCCN1CCN(CCCCCNC(=O)CN(CCN)C(=O)Cn2cnc3c(=O)[nH]c(N)nc32)CCN(CCCCCNC(=O)CN(CCN)C(=O)Cn2cnc3c(=O)[nH]c(N)nc32)C(CNC(=O)CCCC[C@@H]2SC[C@@H]3NC(=O)N[C@@H]32)CN(CCCCCNC(=O)CN(CCN)C(=O)Cn2cnc3c(=O)[nH]c(N)nc32)CC1)C(=O)Cn1cnc2c(=O)[nH]c(N)nc21 (some centres unmarked) |  |  |  |  |  |  | 1.01 ± 0.1 | 15.9 ± 0.9 | 21.5 ± 0.1 | 0.9 ± 0.2 | 4.0 ± 0.0 | 8.2 ± 0.2 | 5.2 ± 0.9 | 457
C[n+]1cc(NC(=O)c2ccc3ccc4ccc(C(=O)Nc5cc6ccccc6[n+](C)c5)nc4c3n2)cc2ccccc21 |  |  |  |  |  |  | 0.0577 ± 0.0002 |  |  |  |  |  |  | 
